± gives the expanded uncertainty stated by the source.
Conditions: Liquid, Buoyancy - hydrostatic balance with magnetic suspension - one sinker

Cc1ccccc1 [toluene]
Conditions	mass density [kg/m3]
333.15 K, 9960.3 kPa	838.314 ± 0.2
333.15 K, 12120 kPa	840.218 ± 0.2
333.15 K, 14111 kPa	841.938 ± 0.2
333.15 K, 15857 kPa	843.417 ± 0.2
333.15 K, 18129 kPa	845.312 ± 0.2
333.15 K, 19860 kPa	846.724 ± 0.2
333.15 K, 22144 kPa	848.558 ± 0.2
333.15 K, 24050 kPa	850.059 ± 0.2
333.15 K, 25886 kPa	851.479 ± 0.2
333.15 K, 28037 kPa	853.128 ± 0.2
333.15 K, 29895 kPa	854.529 ± 0.2
353.15 K, 100.22 kPa	809.674 ± 0.19
353.15 K, 1169.9 kPa	810.881 ± 0.19
353.15 K, 2003.6 kPa	811.814 ± 0.19
353.15 K, 4142.5 kPa	814.153 ± 0.19
353.15 K, 6005.5 kPa	816.142 ± 0.19
353.15 K, 8141.3 kPa	818.365 ± 0.19
353.15 K, 10004 kPa	820.255 ± 0.19
353.15 K, 12008 kPa	822.24 ± 0.19
353.15 K, 14198 kPa	824.368 ± 0.19
353.15 K, 16142 kPa	826.212 ± 0.19
353.15 K, 18101 kPa	828.027 ± 0.19
353.15 K, 19917 kPa	829.683 ± 0.19
353.15 K, 22138 kPa	831.662 ± 0.19
353.15 K, 24034 kPa	833.323 ± 0.19
353.15 K, 26059 kPa	835.06 ± 0.2
353.15 K, 28105 kPa	836.785 ± 0.2
353.15 K, 29954 kPa	838.316 ± 0.2
373.15 K, 1259.9 kPa	791.299 ± 0.18
373.15 K, 2065.8 kPa	792.34 ± 0.18
373.15 K, 3870.7 kPa	794.611 ± 0.18
373.15 K, 6198.3 kPa	797.456 ± 0.19
373.15 K, 8095.9 kPa	799.709 ± 0.19
373.15 K, 9917.3 kPa	801.809 ± 0.19
373.15 K, 12114 kPa	804.274 ± 0.19
373.15 K, 13934 kPa	806.263 ± 0.19
373.15 K, 16020 kPa	808.493 ± 0.19
373.15 K, 18023 kPa	810.573 ± 0.19
373.15 K, 19927 kPa	812.508 ± 0.19
373.15 K, 22108 kPa	814.677 ± 0.19
373.15 K, 23970 kPa	816.486 ± 0.19
373.15 K, 25950 kPa	818.372 ± 0.19
373.15 K, 27874 kPa	820.167 ± 0.19
373.15 K, 29907 kPa	822.029 ± 0.19
393.15 K, 1097.4 kPa	770.672 ± 0.18
393.15 K, 1998.7 kPa	772.03 ± 0.18
393.15 K, 4084.6 kPa	775.078 ± 0.18
393.15 K, 6214.8 kPa	778.084 ± 0.18
393.15 K, 8059.3 kPa	780.589 ± 0.18
393.15 K, 9988.4 kPa	783.137 ± 0.18
393.15 K, 12134 kPa	785.871 ± 0.18
393.15 K, 14051 kPa	788.257 ± 0.18
393.15 K, 16078 kPa	790.683 ± 0.18
393.15 K, 18012 kPa	792.945 ± 0.18
393.15 K, 19811 kPa	794.994 ± 0.18
393.15 K, 22110 kPa	797.55 ± 0.19
393.15 K, 23923 kPa	799.514 ± 0.19
393.15 K, 25870 kPa	801.576 ± 0.19
393.15 K, 27974 kPa	803.747 ± 0.19
393.15 K, 29891 kPa	805.692 ± 0.19
413.15 K, 1099.1 kPa	749.389 ± 0.18
413.15 K, 1960.8 kPa	750.924 ± 0.18
413.15 K, 4038.3 kPa	754.503 ± 0.18
413.15 K, 6026.6 kPa	757.773 ± 0.18
413.15 K, 8189.1 kPa	761.18 ± 0.18
413.15 K, 9852 kPa	763.702 ± 0.18
413.15 K, 12117 kPa	767.016 ± 0.18
413.15 K, 14168 kPa	769.904 ± 0.18
413.15 K, 16108 kPa	772.544 ± 0.18
413.15 K, 18095 kPa	775.165 ± 0.18
413.15 K, 20104 kPa	777.733 ± 0.18
413.15 K, 22152 kPa	780.275 ± 0.18
413.15 K, 24009 kPa	782.518 ± 0.18
413.15 K, 25996 kPa	784.857 ± 0.18
413.15 K, 27793 kPa	786.922 ± 0.18
413.15 K, 29815 kPa	789.193 ± 0.18
433.15 K, 1101.8 kPa	726.984 ± 0.17
433.15 K, 1976.7 kPa	728.858 ± 0.17
433.15 K, 4084.4 kPa	733.177 ± 0.17
433.15 K, 6154.5 kPa	737.18 ± 0.17
433.15 K, 8078.7 kPa	740.731 ± 0.17
433.15 K, 9952.6 kPa	744.032 ± 0.17
433.15 K, 11980 kPa	747.451 ± 0.17
433.15 K, 13969 kPa	750.677 ± 0.18
433.15 K, 16091 kPa	753.964 ± 0.18
433.15 K, 17961 kPa	756.765 ± 0.18
433.15 K, 19890 kPa	759.561 ± 0.18
433.15 K, 22082 kPa	762.624 ± 0.18
433.15 K, 24002 kPa	765.215 ± 0.18
433.15 K, 26049 kPa	767.899 ± 0.18
433.15 K, 27836 kPa	770.185 ± 0.18
433.15 K, 29993 kPa	772.844 ± 0.18
453.15 K, 1107.5 kPa	703.102 ± 0.17
453.15 K, 2037.8 kPa	705.548 ± 0.17
453.15 K, 4185.3 kPa	710.874 ± 0.17
453.15 K, 6060.4 kPa	715.218 ± 0.17
453.15 K, 8005.2 kPa	719.474 ± 0.17
453.15 K, 9870.3 kPa	723.328 ± 0.17
453.15 K, 12115 kPa	727.721 ± 0.17
453.15 K, 14139 kPa	731.482 ± 0.17
453.15 K, 16027 kPa	734.835 ± 0.17
453.15 K, 17928 kPa	738.09 ± 0.17
453.15 K, 20153 kPa	741.727 ± 0.17
453.15 K, 22071 kPa	744.756 ± 0.17
453.15 K, 24057 kPa	747.767 ± 0.17
453.15 K, 26029 kPa	750.661 ± 0.17
453.15 K, 27966 kPa	753.404 ± 0.18
453.15 K, 29817 kPa	755.955 ± 0.18
473.15 K, 1104.4 kPa	677.2 ± 0.16
473.15 K, 2031.3 kPa	680.289 ± 0.16
473.15 K, 4033.8 kPa	686.456 ± 0.16
473.15 K, 6024.4 kPa	692.111 ± 0.16
473.15 K, 7930.8 kPa	697.122 ± 0.16
473.15 K, 10107 kPa	702.459 ± 0.16
473.15 K, 11931 kPa	706.639 ± 0.17
473.15 K, 13959 kPa	711.045 ± 0.17
473.15 K, 16004 kPa	715.254 ± 0.17
473.15 K, 17878 kPa	718.918 ± 0.17
473.15 K, 19844 kPa	722.599 ± 0.17
473.15 K, 22088 kPa	726.587 ± 0.17
473.15 K, 24074 kPa	729.989 ± 0.17
473.15 K, 26038 kPa	733.203 ± 0.17
473.15 K, 27840 kPa	736.071 ± 0.17
473.15 K, 29806 kPa	739.091 ± 0.17

— the NIST ThermoML archive (doi:10.1016/j.jct.2010.08.010)
